Reference: patent US11484539B2, “Compounds and their uses for alleviating menopause-associated symptoms” (Estetra SPRL, priority 2018, dated 2022)

System: post-menopausal women
Assay: Weekly frequency of moderate to severe VMS, dose-finding study
Type: in vivo
Settings: for Difference with placebo, LS adjusted mean, absolute change in weekly frequency of moderate to severe VMS / Difference with placebo, LS adjusted mean, relative change in weekly frequency of moderate to severe VMS: 10 mg E4 vs placebo; for Differences with placebo (including ineffective doses 2.5 mg and 5 mg), relative change in weekly frequency of moderate to severe VMS, LS adjusted mean / Differences with placebo (including ineffective doses 2.5 mg and 5 mg), relative change in weekly frequency of moderate to severe VMS, p_value: 10.0 mg vs 0 mg; for Relative change in weekly frequency of moderate to severe VMS, LS adjusted mean: analysis with placebo grouped with 2.5 and 5 mg; for LS adjusted mean change from baseline in weekly frequency of moderate to severe VMS / LS adjusted mean relative change (%) from baseline in weekly frequency of moderate to severe VMS: 15 mg E4
Description: To determine the Minimum Effective Dose (MED), firstly the selection criteria required that patients presented at least 7 moderate to severe VMS/day or at least 50 moderate to severe VMS/week in the week preceding randomization. Secondly, a placebo group was included in a double-blind fashion. Thirdly, the total patient number was such that statistical significance could be obtained between separate arms of the study. Fourthly, the absolute change from baseline in weekly frequency of moderate to severe VMS was taken into account. An analysis of covariance (ANCOVA) was performed based on the untransformed change in weekly frequency of moderate to severe VMS from baseline. Finally, the change in severity from baseline was evaluated. For this, the Severity Scoring System of VMS was documented by the subjects as follows: • a score of Mild (1) for a sensation of heat without sweating; • a score of Moderate (2) for a sensation of heat with sweating/the subject is able to continue activity; and • a score of Severe (3) for a sensation of heat with sweating/which causes cessation of activity.
Enrolment was approximately 18 months. Individual subject participation was up to 27 weeks: up to 6 weeks pre-screening and washout, up to 4 weeks screening and run-in period, up to 91 days (13 weeks) of E4/placebo treatment followed by 2 weeks (14 days) of progestin therapy and a Follow up visit 1 week after completion of progestin therapy in non-hysterectomised subjects only.
To define the minimum effective dose (MED) of the oral dose of E4 by evaluating changes in frequency and in severity of moderate to severe vasomotor symptoms (VMS).
This was a prospective, multicentre, randomised, placebo-controlled, double-blinded, dose-finding study.
Eligible subjects were hysterectomised and non-hysterectomised post-menopausal women aged 40 to 65 years, inclusive, presenting at least 7 moderate to severe hot flushes/day or at least 50 moderate to severe hot flushes/week.
The subjects have met all of the following inclusion criteria at the randomization visit. These criteria were assessed during the screening period: • 1. Women aged 40 to 65 years, inclusive, presenting at least 7 moderate to severe hot flushes/day or at least 50 moderate to severe hot flushes/week in the week preceding randomization. • 2. Body Mass Index (BMI) between 18.0 and 35.0 kg/m^2, inclusive. • 3. Post-menopausal status defined as levels of follicle stimulating hormone (FSH) >40 IU/L and: • amenorrhoea for at least 12 consecutive months or, • amenorrhoea for at least 6 months with estradiol (E2)<20 pg/mL or, • at least 6 weeks post-surgical bilateral oophorectomy with or without hysterectomy with a copy of the pathology report or a statement on letterhead from the subject's physician documenting both ovaries were removed is required. • 4. For non-hysterectomised women: intact uterus with bi-layer endometrial thickness […] on TVUS. • 5. Negative pregnancy test. • 6. Good physical and mental health, in the judgement of the Principal Investigator (PI), on the basis of medical, surgical and gynaecological history, physical examination, gynaecological examination, clinical laboratory, and vital signs. • 7. Subject has provided signed and dated written informed consent before admission to the study. • 8. Subject is able to understand and comply with the protocol requirements, instructions, and protocol-stated restrictions. Exclusion Criteria:
All treatments (Estetrol, hereinafter, E4, [2.5 mg, 5 mg, 10 mg, 15 mg] capsule) were administered once daily (QD) per os for at least 12 consecutive weeks until the last biological assessments (Day 91 maximum) had been performed.
In order to analyse the data recorded in this study, treatment groups have been compared using an ANCOVA (analysis of covariance) with respect to the change in weekly frequency of moderate to severe VMS from baseline to weeks 4 and 12. […]

[1] = week 4, ANCOVA with study centre
[2] = week 12, ANCOVA with study centre

C[C@]12CC[C@@H]3c4ccc(O)cc4CC[C@H]3[C@@H]1[C@@H](O)[C@@H](O)[C@@H]2O [E4, 1,3,5 (10)-estratrien-3,15alpha,16alpha,17beta-tetrol]
Mean change from baseline in weekly frequency of moderate to severe VMS (10 mg E4 QD per os, week 8): −44.46
Relative change (% from baseline) in weekly frequency of moderate to severe VMS, mean (10 mg E4 QD per os, week 8): −68%
Mean change from baseline in weekly frequency of moderate to severe VMS (10 mg E4 QD per os, week 9): −45.19
Relative change (% from baseline) in weekly frequency of moderate to severe VMS, mean (10 mg E4 QD per os, week 9): −69%
Mean change from baseline in weekly frequency of moderate to severe VMS (10 mg E4 QD per os, week 10): −45.93
Relative change (% from baseline) in weekly frequency of moderate to severe VMS, mean (10 mg E4 QD per os, week 10): −70%
Mean change from baseline in weekly frequency of moderate to severe VMS (10 mg E4 QD per os, week 11): −45.90
Relative change (% from baseline) in weekly frequency of moderate to severe VMS, mean (10 mg E4 QD per os, week 11): −70%
Mean change from baseline in weekly frequency of moderate to severe VMS (10 mg E4 QD per os, week 12): −47.21
Relative change (% from baseline) in weekly frequency of moderate to severe VMS, mean (10 mg E4 QD per os, week 12): −72%
Difference with placebo, LS adjusted mean, absolute change in weekly frequency of moderate to severe VMS [1]: −1.571
Difference with placebo, LS adjusted mean, relative change in weekly frequency of moderate to severe VMS [1]: −0.05376
Difference with placebo, LS adjusted mean, absolute change in weekly frequency of moderate to severe VMS (week 4, without site effect): −2.222
Difference with placebo, LS adjusted mean, relative change in weekly frequency of moderate to severe VMS (week 4, without site effect): −0.06517
Difference with placebo, LS adjusted mean, absolute change in weekly frequency of moderate to severe VMS [2]: −2.103
Difference with placebo, LS adjusted mean, relative change in weekly frequency of moderate to severe VMS [2]: −0.05804
Difference with placebo, LS adjusted mean, absolute change in weekly frequency of moderate to severe VMS (week 12, without site effect): −2.603
Difference with placebo, LS adjusted mean, relative change in weekly frequency of moderate to severe VMS (week 12, without site effect): −0.06624
Differences with placebo (including ineffective doses 2.5 mg and 5 mg), relative change in weekly frequency of moderate to severe VMS, LS adjusted mean (week 4): −0.07645
Differences with placebo (including ineffective doses 2.5 mg and 5 mg), relative change in weekly frequency of moderate to severe VMS, p_value (week 4): 0.2615
Differences with placebo (including ineffective doses 2.5 mg and 5 mg), relative change in weekly frequency of moderate to severe VMS, LS adjusted mean (week 12): −0.08276
Differences with placebo (including ineffective doses 2.5 mg and 5 mg), relative change in weekly frequency of moderate to severe VMS, p_value (week 12): 0.1798
Relative change (% from baseline) in weekly frequency of moderate to severe VMS, mean (10 mg, Week 12): −72%
Relative change (% from baseline) in weekly frequency of moderate to severe VMS, mean (10 mg, week 0): 0%
Relative change (% from baseline) in weekly frequency of moderate to severe VMS, mean (10 mg, week 1): −21%
Relative change (% from baseline) in weekly frequency of moderate to severe VMS, mean (10 mg, week 2): −37%
Relative change (% from baseline) in weekly frequency of moderate to severe VMS, mean (10 mg, week 3): −48%
Relative change (% from baseline) in weekly frequency of moderate to severe VMS, mean (10 mg, week 4): −55%
Relative change in weekly frequency of moderate to severe VMS, LS adjusted mean (10 mg, week 4): −0.5442
Relative change (% from baseline) in weekly frequency of moderate to severe VMS, mean (10 mg, week 5): −60%
Relative change (% from baseline) in weekly frequency of moderate to severe VMS, mean (10 mg, week 6): −65%
Relative change (% from baseline) in weekly frequency of moderate to severe VMS, mean (10 mg, week 7): −66%
Relative change (% from baseline) in weekly frequency of moderate to severe VMS, mean (10 mg, week 8): −68%
Relative change (% from baseline) in weekly frequency of moderate to severe VMS, mean (10 mg, week 9): −69%
Relative change (% from baseline) in weekly frequency of moderate to severe VMS, mean (10 mg, week 10): −70%
Relative change (% from baseline) in weekly frequency of moderate to severe VMS, mean (10 mg, week 11): −70%
Relative change in weekly frequency of moderate to severe VMS, LS adjusted mean (10 mg, week 12): −0.7008
LS adjusted mean change from baseline in weekly frequency of moderate to severe VMS [1]: −43.6
LS adjusted mean relative change (%) from baseline in weekly frequency of moderate to severe VMS [1]: -64.7%
LS adjusted mean change from baseline in weekly frequency of moderate to severe VMS (week 4, without site effect): −44.36
LS adjusted mean relative change (%) from baseline in weekly frequency of moderate to severe VMS (week 4, without site effect): -66%
LS adjusted mean change from baseline in weekly frequency of moderate to severe VMS [2]: −53.83
LS adjusted mean relative change (%) from baseline in weekly frequency of moderate to severe VMS [2]: -80.1%
LS adjusted mean change from baseline in weekly frequency of moderate to severe VMS (week 12, without site effect): −54.91
LS adjusted mean relative change (%) from baseline in weekly frequency of moderate to severe VMS (week 12, without site effect): -82.3%
Mean change from baseline in weekly frequency of moderate to severe VMS (15 mg E4 QD per os, week 1): −14.86
Relative change (% from baseline) in weekly frequency of moderate to severe VMS, mean (15 mg E4 QD per os, week 1): −22%
Mean change from baseline in weekly frequency of moderate to severe VMS (15 mg E4 QD per os, week 2): −29.19
Relative change (% from baseline) in weekly frequency of moderate to severe VMS, mean (15 mg E4 QD per os, week 2): −46%
Mean change from baseline in weekly frequency of moderate to severe VMS (15 mg E4 QD per os, week 3): −36.30
Relative change (% from baseline) in weekly frequency of moderate to severe VMS, mean (15 mg E4 QD per os, week 3): −57%
